Test [1] addresses T1, D(2) dopamine receptor (Homo sapiens, UniProt P14416). In words: Inhibition of human dopamine D2L receptor expressed in intact CHO FlpIn cells assessed as inhibition of receptor-mediated mediated ERK1/2 phosphorylation by Alpha-Screen plate-based assay. Type of test: cell-based. On the technique in general: Bead proximity is the source of the signal in Alpha formats.
Test [2] addresses T1, D(2) dopamine receptor. In words: Displacement of [3H]-spiperone from human dopamine D2L receptor expressed in CHO FlpIn cell membrane measured after 3 hrs by topcount scintillation counting.

Some results are limits rather than exact numbers.

T1 sequence (P14416 whole entry): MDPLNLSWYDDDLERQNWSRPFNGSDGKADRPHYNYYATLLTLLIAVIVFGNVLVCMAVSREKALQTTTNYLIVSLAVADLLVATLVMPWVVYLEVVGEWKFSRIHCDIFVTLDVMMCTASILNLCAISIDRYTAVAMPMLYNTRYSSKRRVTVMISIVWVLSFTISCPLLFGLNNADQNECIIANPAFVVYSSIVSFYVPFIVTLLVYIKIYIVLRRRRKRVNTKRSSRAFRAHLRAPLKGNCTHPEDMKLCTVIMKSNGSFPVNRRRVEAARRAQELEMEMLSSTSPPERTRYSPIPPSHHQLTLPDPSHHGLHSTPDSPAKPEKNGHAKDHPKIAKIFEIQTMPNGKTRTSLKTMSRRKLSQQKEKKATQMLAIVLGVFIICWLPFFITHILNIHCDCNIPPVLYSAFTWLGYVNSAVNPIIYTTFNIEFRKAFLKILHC

As usually defined, the pIC50 is the IC50 on a negative log10 scale, so that one unit is a factor of ten. In the case of `CN1CCN(C2=Nc3cc(Cl)ccc3N(C(=O)CCCCCCCCCCCCC(=O)N3c4ccc(Cl)cc4N=C(N4CCN(C)CC4)c4ccccc43)c3ccccc32)CC1`, the pIC50 in test [1] (cho) was less than 5. In addition, the IC50 in test [1] (read-out: IC50) is greater than 10 µM. For the compound `CN1CCN(C2=Nc3cc(Cl)ccc3N(NC(=O)CCCCCCCCCCCCCCCCC(=O)NN3c4ccc(Cl)cc4N=C(N4CCN(C)CC4)c4ccccc43)c3ccccc32)CC1`, in test [1] (cho), the negative-log IC50 (pIC50) was less than 5. The IC50 in test [1] (read-out: IC50) is greater than 10 µM. With `O=C(CCCCCCC(=O)NCCCN1CCN(C2=Nc3cc(Cl)ccc3Nc3ccccc32)CC1)NCCCN1CCN(C2=Nc3cc(Cl)ccc3Nc3ccccc32)CC1`, the IC50 in test [1] (read-out: IC50) was found to be 0.023 µM. The Ki in test [2] (read-out: Ki) is 0.00141 µM; in test [2] (read-out: pKi (converted)), 0.00135 µM.

With `CN1CCN(C2=Nc3cc(Cl)ccc3N(C(=O)CCCCCCCCC(=O)N3c4ccc(Cl)cc4N=C(N4CCN(C)CC4)c4ccccc43)c3ccccc32)CC1`, the pIC50 in test [1] (cho) is less than 5. Besides, in test [1] (read-out: IC50), the IC50 was greater than 10 µM. For `CCCCCCCCCC(=O)NCCCN1CCN(C2=Nc3cc(Cl)ccc3Nc3ccccc32)CC1`, the IC50 in test [1] (read-out: IC50) was determined as 1.46 µM. In addition, the Ki in test [2] (read-out: Ki) is 0.0091 µM; in test [2] (read-out: pKi (converted)), 0.00891 µM. Consider `CN1CCN(C2=Nc3cc(Cl)ccc3N(NC(=O)CCCCCCCCCCC(=O)NN3c4ccc(Cl)cc4N=C(N4CCN(C)CC4)c4ccccc43)c3ccccc32)CC1`, for which the pIC50 in test [1] (cho) is less than 5. For the same compound, the IC50 in test [1] (read-out: IC50) was greater than 10 µM. As for `CN1CCN(C2=Nc3cc(Cl)ccc3N(C(=O)CCCCCCC(=O)N3c4ccc(Cl)cc4N=C(N4CCN(C)CC4)c4ccccc43)c3ccccc32)CC1`, the IC50 in test [1] (read-out: IC50) is 2.66 µM; in test [1] (read-out: pIC50 (converted)) it was 1.78 µM.

Consider `CN1CCN(C2=Nc3cc(Cl)ccc3N(NC(=O)CCCCCCC(=O)NN3c4ccc(Cl)cc4N=C(N4CCN(C)CC4)c4ccccc43)c3ccccc32)CC1`, for which the IC50 in test [1] (read-out: IC50) worked out at 2.44 µM. In the case of `O=C(CCCCCCCCCCC(=O)NCCCN1CCN(C2=Nc3cc(Cl)ccc3Nc3ccccc32)CC1)NCCCN1CCN(C2=Nc3cc(Cl)ccc3Nc3ccccc32)CC1`, the IC50 is 1.12 µM in test [1] (read-out: IC50) and 1.1 µM in test [1] (read-out: pIC50 (converted)). `CN1CCN(C2=Nc3cc(Cl)ccc3N(C(=O)CCCCCCCCCCC(=O)N3c4ccc(Cl)cc4N=C(N4CCN(C)CC4)c4ccccc43)c3ccccc32)CC1`: the pIC50 in test [1] (cho) is reported as less than 5. The IC50 in test [1] (read-out: IC50) was greater than 10 µM. Consider `CCCCCCCCCC(=O)N1c2ccc(Cl)cc2N=C(N2CCN(C)CC2)c2ccccc21`, for which the IC50 in test [1] (read-out: IC50) came out at 0.776 µM.

For the compound `O=C(CCCCC(=O)NCCCN1CCN(C2=Nc3cc(Cl)ccc3Nc3ccccc32)CC1)NCCCN1CCN(C2=Nc3cc(Cl)ccc3Nc3ccccc32)CC1`, in test [1] (read-out: IC50), the IC50 was 0.087 µM. Besides, the Ki in test [2] (read-out: Ki) was 0.0036 µM; in test [2] (read-out: pKi (converted)) it was 0.00316 µM. On to `O=C(CCCCCCCCCCCCCCCCC(=O)NCCCN1CCN(C2=Nc3cc(Cl)ccc3Nc3ccccc32)CC1)NCCCN1CCN(C2=Nc3cc(Cl)ccc3Nc3ccccc32)CC1`, for which the IC50 in test [1] (read-out: IC50) was 7.8 µM. In addition, the Ki in test [2] (read-out: Ki) was 0.269 µM; in test [2] (read-out: pKi (converted)), 0.245 µM. Consider `CN1CCN(C2=Nc3cc(Cl)ccc3N(NC(=O)CCCC(=O)N3CCN(C(=O)CCCC(=O)NN4c5ccc(Cl)cc5N=C(N5CCN(C)CC5)c5ccccc54)CC3)c3ccccc32)CC1`, for which the IC50 in test [1] (read-out: IC50) stood at 2.63 µM.

Regarding `CN1CCN(C2=Nc3cc(Cl)ccc3N(NC(=O)CCC(=O)OCCOC(=O)CCC(=O)NN3c4ccc(Cl)cc4N=C(N4CCN(C)CC4)c4ccccc43)c3ccccc32)CC1`, in test [1] (read-out: IC50), the IC50 was 2.41 µM. In the case of `CN1CCN(C2=Nc3cc(Cl)ccc3N(NC(=O)CCCCC(=O)NN3c4ccc(Cl)cc4N=C(N4CCN(C)CC4)c4ccccc43)c3ccccc32)CC1`, the results for the IC50 in test [1] (read-out: IC50) and in test [1] (read-out: pIC50 (converted)) were 2.08 µM and 2.04 µM, respectively. With `O=C(CCCCCCCCCCCCC(=O)NCCCN1CCN(C2=Nc3cc(Cl)ccc3Nc3ccccc32)CC1)NCCCN1CCN(C2=Nc3cc(Cl)ccc3Nc3ccccc32)CC1`, in test [1] (read-out: IC50), the IC50 was determined as 11 µM. With `CN1CCN(C2=Nc3cc(Cl)ccc3N(C(=O)CCCCCCCCCCCCCCCCC(=O)N3c4ccc(Cl)cc4N=C(N4CCN(C)CC4)c4ccccc43)c3ccccc32)CC1`, the pIC50 in test [1] (cho) is recorded as less than 5. For the same compound, the IC50 in test [1] (read-out: IC50) is greater than 10 µM.

`O=C(CCCCCCCCC(=O)NCCCN1CCN(C2=Nc3cc(Cl)ccc3Nc3ccccc32)CC1)NCCCN1CCN(C2=Nc3cc(Cl)ccc3Nc3ccccc32)CC1`: the IC50 in test [1] (read-out: IC50) amounted to 0.044 µM. The Ki is 0.00135 µM in test [2] (read-out: Ki) and 0.00123 µM in test [2] (read-out: pKi (converted)).

As for `CN1CCN(C2=Nc3cc(Cl)ccc3N(C(=O)CCCCCCCCCCCCCCCCCCC(=O)N3c4ccc(Cl)cc4N=C(N4CCN(C)CC4)c4ccccc43)c3ccccc32)CC1`, the pIC50 in test [1] (cho) is reported as less than 5. The IC50 in test [1] (read-out: IC50) is greater than 10 µM. The matching figures for `CN1CCN(C2=Nc3cc(Cl)ccc3N(NC(=O)CCCCCCCCCCCCC(=O)NN3c4ccc(Cl)cc4N=C(N4CCN(C)CC4)c4ccccc43)c3ccccc32)CC1`: less than 5 and greater than 10 µM. For `CN1CCN(C2=Nc3cc(Cl)ccc3N(NC(=O)CCC(=O)N3CCN(C(=O)CCC(=O)NN4c5ccc(Cl)cc5N=C(N5CCN(C)CC5)c5ccccc54)CC3)c3ccccc32)CC1`, in test [1] (read-out: IC50), the IC50 was 1.62 µM.

In the case of `CN1CCN(C2=Nc3cc(Cl)ccc3N(NC(=O)CCCCCCCCCCCCCCCCCCC(=O)NN3c4ccc(Cl)cc4N=C(N4CCN(C)CC4)c4ccccc43)c3ccccc32)CC1`, the pIC50 in test [1] (cho) is recorded as less than 5. Moreover, the IC50 in test [1] (read-out: IC50) is greater than 10 µM. As to `O=C(CCCCCCCCCCCCCCCCCCC(=O)NCCCN1CCN(C2=Nc3cc(Cl)ccc3Nc3ccccc32)CC1)NCCCN1CCN(C2=Nc3cc(Cl)ccc3Nc3ccccc32)CC1`, the IC50 in test [1] (cho, read-out: IC50) was greater than 10 µM; in test [1] (read-out: pIC50 (converted)), greater than 10 µM. `CCCCCCCCCC(=O)NN1c2ccc(Cl)cc2N=C(N2CCN(C)CC2)c2ccccc21`: the IC50 in test [1] (read-out: IC50) came out at 8.94 µM. As to `CN1CCN(C2=Nc3cc(Cl)ccc3N(NC(=O)CCCCCCCCC(=O)NN3c4ccc(Cl)cc4N=C(N4CCN(C)CC4)c4ccccc43)c3ccccc32)CC1`, in test [1] (cho), the negative logarithm of the IC50 (pIC50) was less than 5. The IC50 in test [1] (read-out: IC50) is greater than 10 µM.

(Values after ChEMBL document CHEMBL2016514, “Homobivalent ligands of the atypical antipsychotic clozapine: design, synthesis, and pharmacological evaluation” (J Med Chem, 2012).)
